Results: publication PMC10746543, “Design principles for cyclin K molecular glue degraders” (Nature Chemical Biology, 2023)
Where “and” joins values, the source holds several entries; their conditions need not be identical. Identical values can stand only once. Like-named read-outs stand apart in the source and are kept apart here. Blank lines part the entries; values can stand above or below the compound they belong to.

Experiments:
[1] = molecular target: T1, CDK12–cyclin K and DDB1 (Homo sapiens, UniProt Q16531+Q9NYV4, K965R); test: TR-FRET ternary complex formation assay (compound titration); format: binding; settings: for TR-FRET signal at compound concentration 0.468 nM / TR-FRET signal at compound concentration 2.16 nM / TR-FRET signal at compound concentration 3.6 nM / TR-FRET signal at compound concentration 7.92001 nM / TR-FRET signal at compound concentration 15.84 nM / TR-FRET signal at compound concentration 30.96 nM / TR-FRET signal at compound concentration 62.6401 nM / TR-FRET signal at compound concentration 125.28 nM / TR-FRET signal at compound concentration 244.8 nM / TR-FRET signal at compound concentration 993.601 nM / TR-FRET signal at compound concentration 2001.6 nM: raw replicate titration data
T1 construct: His6–CDK12 (a.a. 713–1,052); full-length or beta-propeller B domain deletion (ΔBPB: a.a. 396–705 deleted) constructs of His6–DDB1ΔBPB, StrepII–Avi–DDB1, or His6–Spy–DDB1; made in house; host or cells: Trichoplusia ni High Five insect cells (baculovirus)
T1 sequence (Q9NYV4 713-1052 K965R): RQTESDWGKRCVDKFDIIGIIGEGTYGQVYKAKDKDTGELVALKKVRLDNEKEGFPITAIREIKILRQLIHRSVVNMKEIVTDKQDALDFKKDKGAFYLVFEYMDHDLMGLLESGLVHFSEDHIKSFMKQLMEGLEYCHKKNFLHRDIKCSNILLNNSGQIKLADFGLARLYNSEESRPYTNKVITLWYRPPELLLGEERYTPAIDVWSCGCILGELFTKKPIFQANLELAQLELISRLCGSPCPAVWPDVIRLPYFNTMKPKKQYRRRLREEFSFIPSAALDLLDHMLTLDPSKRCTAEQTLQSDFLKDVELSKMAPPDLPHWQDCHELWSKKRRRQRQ
T1 sequence (O75909 1-267 partner): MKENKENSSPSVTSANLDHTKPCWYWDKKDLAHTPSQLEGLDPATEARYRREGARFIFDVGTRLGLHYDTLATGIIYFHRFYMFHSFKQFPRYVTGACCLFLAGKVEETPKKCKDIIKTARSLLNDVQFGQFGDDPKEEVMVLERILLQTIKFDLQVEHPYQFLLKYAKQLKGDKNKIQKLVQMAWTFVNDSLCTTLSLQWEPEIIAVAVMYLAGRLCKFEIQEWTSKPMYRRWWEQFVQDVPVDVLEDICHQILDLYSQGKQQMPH
T1 sequence (Q16531 whole entry): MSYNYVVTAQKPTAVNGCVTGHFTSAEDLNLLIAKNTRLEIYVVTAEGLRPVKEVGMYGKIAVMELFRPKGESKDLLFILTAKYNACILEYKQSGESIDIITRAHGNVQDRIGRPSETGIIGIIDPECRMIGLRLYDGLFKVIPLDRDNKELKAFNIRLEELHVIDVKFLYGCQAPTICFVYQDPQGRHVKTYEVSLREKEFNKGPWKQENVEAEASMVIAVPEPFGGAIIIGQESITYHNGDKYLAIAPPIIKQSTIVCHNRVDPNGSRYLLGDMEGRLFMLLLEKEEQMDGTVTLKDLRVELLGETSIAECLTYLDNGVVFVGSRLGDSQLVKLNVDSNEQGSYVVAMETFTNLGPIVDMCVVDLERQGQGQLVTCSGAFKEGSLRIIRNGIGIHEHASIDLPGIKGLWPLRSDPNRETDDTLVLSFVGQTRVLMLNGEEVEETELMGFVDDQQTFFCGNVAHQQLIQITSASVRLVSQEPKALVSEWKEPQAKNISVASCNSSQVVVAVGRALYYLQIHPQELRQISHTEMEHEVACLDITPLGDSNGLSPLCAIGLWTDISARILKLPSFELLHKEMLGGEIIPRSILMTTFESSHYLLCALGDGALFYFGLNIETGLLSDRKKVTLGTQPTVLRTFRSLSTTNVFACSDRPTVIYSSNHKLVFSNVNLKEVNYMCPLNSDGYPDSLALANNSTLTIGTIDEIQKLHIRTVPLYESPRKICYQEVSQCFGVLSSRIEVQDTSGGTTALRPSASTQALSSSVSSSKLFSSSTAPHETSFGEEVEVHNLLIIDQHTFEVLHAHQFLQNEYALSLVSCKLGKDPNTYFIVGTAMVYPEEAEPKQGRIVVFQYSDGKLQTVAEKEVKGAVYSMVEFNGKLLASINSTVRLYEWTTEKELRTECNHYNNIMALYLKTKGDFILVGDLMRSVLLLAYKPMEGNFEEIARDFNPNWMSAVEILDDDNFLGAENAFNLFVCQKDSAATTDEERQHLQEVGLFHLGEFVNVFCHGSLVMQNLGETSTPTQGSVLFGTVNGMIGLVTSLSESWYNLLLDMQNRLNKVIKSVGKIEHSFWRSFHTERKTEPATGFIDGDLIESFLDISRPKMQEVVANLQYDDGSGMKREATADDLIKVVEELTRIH
Summary of the method: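 A time delay of 70 μs preceded acquisition, limiting background fluorescence; the ratio of emission at 520 versus 490 nm gave the TR-FRET value.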

[2] = system: cyclin K–eGFP degradation reporter; test: Cyclin K reporter stability analysis (dual-color cyclin K–eGFP reporter); format: cell-based, human; settings: source data sheet correlations
Summary of the method: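 Values reflect cyclin K–eGFP levels after a 5 h exposure, expressed as the green-to-red fluorescence ratio and scaled to three vehicle-treated controls. Measurements came from HEK293T–Cas9 reporter cells by flow cytometry.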

[3] = system: HEK293T cells; test: Drug sensitivity assay (CellTiter-Glo viability) with or without MLN4924 pretreatment; format: cell-based, human; settings: Supplementary Table 2; for EC50: Homo sapiens, HEK-293T, HEK293T viability, 72 h, compound alone, read-out: Cellular assays EC50; for Toxicity rescue: MLN4924-mediated cytotoxicity rescue, 10 µM used where n.d.
Summary of the method: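 Cas9-expressing HEK293T cells receive either vehicle or 100 nM MLN4924, then compounds 2 h afterwards. After three days, luminescence-based viability is measured and calculated relative to DMSO.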

[4] = molecular target: CDK12–cyclin K (Homo sapiens, UniProt Q9NYV4); test: Lanthascreen kinase binding assay, CDK12; settings: for IC50: Supplementary Table 2, read-out: Lanthascreen IC50 [nM] CDK12; for Lanthascreen raw signal, sheet CDK12: series r1, duplicates
CDK12–cyclin K, sequence (Q9NYV4 713-1052): as the sequence (Q9NYV4 713-1052 K965R) above, with R253K counted along it
CDK12–cyclin K, sequence (O75909 1-267 partner limits assumed): as the sequence (O75909 1-267 partner) above
Procedure: (§1) Lanthascreen experiments were performed using commercially available reagents (Thermo Fisher) and according to the manufacturer’s instructions.

[5] = molecular target: T2, CDK9–cyclin T (Homo sapiens, UniProt P50750); test: Lanthascreen kinase binding assay, CDK9; settings: for IC50: Supplementary Table 2, read-out: Lanthascreen IC50 [nM] CDK9; for Lanthascreen TR-FRET signal (raw ratio), sheet CDK9: first titration set (r1), duplicates
T2 construct: purchased Thermo Fisher
T2 sequence (P50750 whole entry): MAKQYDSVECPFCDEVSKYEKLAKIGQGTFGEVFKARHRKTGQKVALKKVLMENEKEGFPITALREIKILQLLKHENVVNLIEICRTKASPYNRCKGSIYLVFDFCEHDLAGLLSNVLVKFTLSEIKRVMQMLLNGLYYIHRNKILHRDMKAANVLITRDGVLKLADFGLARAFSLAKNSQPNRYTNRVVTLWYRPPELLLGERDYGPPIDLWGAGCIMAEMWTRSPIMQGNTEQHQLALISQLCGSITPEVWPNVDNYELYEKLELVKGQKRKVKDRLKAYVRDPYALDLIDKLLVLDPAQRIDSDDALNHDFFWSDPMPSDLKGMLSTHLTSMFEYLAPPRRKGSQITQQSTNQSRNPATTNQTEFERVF
T2 sequence (O60563 whole entry partner): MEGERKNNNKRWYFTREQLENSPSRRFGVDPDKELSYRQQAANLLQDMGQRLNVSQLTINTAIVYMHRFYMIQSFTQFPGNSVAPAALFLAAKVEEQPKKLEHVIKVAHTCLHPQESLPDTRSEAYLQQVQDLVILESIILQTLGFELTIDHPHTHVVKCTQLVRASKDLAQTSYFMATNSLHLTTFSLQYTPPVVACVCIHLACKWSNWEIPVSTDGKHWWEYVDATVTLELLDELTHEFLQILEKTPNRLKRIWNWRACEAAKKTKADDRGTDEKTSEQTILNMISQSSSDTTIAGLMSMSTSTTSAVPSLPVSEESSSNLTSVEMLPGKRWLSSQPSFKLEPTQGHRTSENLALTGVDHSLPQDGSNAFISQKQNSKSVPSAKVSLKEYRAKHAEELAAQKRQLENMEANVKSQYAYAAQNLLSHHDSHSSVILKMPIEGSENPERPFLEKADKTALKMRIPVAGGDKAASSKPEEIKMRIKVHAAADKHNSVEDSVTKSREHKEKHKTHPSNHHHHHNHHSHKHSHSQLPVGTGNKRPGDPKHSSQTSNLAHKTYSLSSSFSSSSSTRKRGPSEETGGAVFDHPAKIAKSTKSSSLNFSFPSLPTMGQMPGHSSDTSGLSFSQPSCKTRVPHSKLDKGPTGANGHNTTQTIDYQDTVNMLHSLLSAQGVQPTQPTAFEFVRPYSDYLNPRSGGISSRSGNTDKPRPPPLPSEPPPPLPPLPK
Procedure: as §1

[6] = molecular target: T3, CDK2–cyclin A (Homo sapiens, UniProt P24941); test: Lanthascreen kinase binding assay, CDK2; settings: for Lanthascreen signal, sheet CDK2: raw replicates, experiment r1-r11
T3 construct: purchased Thermo Fisher
Procedure: as §1

[7] = in vitro complex formation, 50 nM CDK12–cyclin K, 100 nM DDB1, text and figures, read-out: TR-FRET EC50
[8] = source data sheet correlations, read-out: TR-FRET EC50
[9] = Supplementary Table 2, read-out: Lanthascreen IC50 [nM] CDK2

- TR-FRET signal at compound concentration 0.468 nM [1]: 0.3328 and 0.3098
- TR-FRET signal at compound concentration 2.16 nM [1]: 0.4001 and 0.3765
- TR-FRET signal at compound concentration 3.6 nM [1]: 0.5431 and 0.4961
- TR-FRET signal at compound concentration 7.92001 nM [1]: 0.8328 and 0.7643
- TR-FRET signal at compound concentration 15.84 nM [1]: 1.412 and 1.246
- TR-FRET signal at compound concentration 30.96 nM [1]: 2.416 and 2.183
- TR-FRET signal at compound concentration 62.6401 nM [1]: 3.349 and 3.281
- TR-FRET signal at compound concentration 125.28 nM [1]: 3.867 and 3.698
- TR-FRET signal at compound concentration 244.8 nM [1]: 3.9597 and 3.8541
- TR-FRET signal at compound concentration 993.601 nM [1]: 3.967 and 3.873
- TR-FRET signal at compound concentration 2001.6 nM [1]: 4.005 and 3.884
- EC50 [1, 7]: 28 ± 1 nM
- EC50 ([1]; sheet MOESM7, read-out: log TR-FRET EC50 (converted)): 27.6 nM
- EC50 [1, 8]: 27.6 nM
- DC50 ([2]; log value): 4 nM
- DC50 ([2]; read-out: DC50): 4 nM
- IC50 [4]: 134 nM
- Lanthascreen raw signal, sheet CDK12 ([4]; compound 1.02544 nM): 0.006087 and 0.009032
- Lanthascreen raw signal, sheet CDK12 ([4]; compound 3.15521 nM): 0.01061 and 0.007755
- Lanthascreen raw signal, sheet CDK12 ([4]; compound 9.46563 nM): 0.009135 and 0.006327
- Lanthascreen raw signal, sheet CDK12 ([4]; compound 31.5521 nM): 0.007705 and 0.007896
- Lanthascreen raw signal, sheet CDK12 ([4]; compound 99.3891 nM): 0.007199 and 0.007003
- Lanthascreen raw signal, sheet CDK12 ([4]; compound 315.521 nM): 0.006511 and 0.005836
- Lanthascreen raw signal, sheet CDK12 ([4]; compound 3155.21 nM): 0.006388 and 0.004562
- Lanthascreen raw signal, sheet CDK12 ([4]; compound 10002 nM): 0.005868 and 0.005096
- IC50 [5]: 684 nM
- Lanthascreen TR-FRET signal (raw ratio), sheet CDK9 ([5]; compound 1.02544 nM): 0.01471 and 0.01339
- Lanthascreen TR-FRET signal (raw ratio), sheet CDK9 ([5]; compound 3.15521 nM): 0.01367 and 0.0125
- Lanthascreen TR-FRET signal (raw ratio), sheet CDK9 ([5]; compound 9.46563 nM): 0.01267 and 0.01475
- Lanthascreen TR-FRET signal (raw ratio), sheet CDK9 ([5]; compound 31.5521 nM): 0.01209 and 0.01181
- Lanthascreen TR-FRET signal (raw ratio), sheet CDK9 ([5]; compound 99.3891 nM): 0.01168 and 0.01283
- Lanthascreen TR-FRET signal (raw ratio), sheet CDK9 ([5]; compound 315.521 nM): 0.01175 and 0.01042
- Lanthascreen TR-FRET signal (raw ratio), sheet CDK9 ([5]; compound 3155.21 nM): 0.005807 and 0.004691
- Lanthascreen TR-FRET signal (raw ratio), sheet CDK9 ([5]; compound 10002 nM): 0.004107 and 0.003744
- Lanthascreen signal, sheet CDK2 ([6]; Compound 1.02544 nM): 0.009545 and 0.009565
- Lanthascreen signal, sheet CDK2 ([6]; Compound 3.15521 nM): 0.01077 and 0.01025
- Lanthascreen signal, sheet CDK2 ([6]; Compound 9.46563 nM): 0.009718 and 0.00939
- Lanthascreen signal, sheet CDK2 ([6]; Compound 31.5521 nM): 0.009822 and 0.01021
- Lanthascreen signal, sheet CDK2 ([6]; Compound 99.3891 nM): 0.009696 and 0.01058
- Lanthascreen signal, sheet CDK2 ([6]; Compound 315.521 nM): 0.0105 and 0.00942
- Lanthascreen signal, sheet CDK2 ([6]; Compound 3155.21 nM): 0.01064 and 0.008324
- Lanthascreen signal, sheet CDK2 ([6]; Compound 10002 nM): 0.005535 and 0.005659
- IC50 ([6]; Lanthascreen, average, Extended Data Fig. 8, read-out: CDK2 IC50): > 10000 nM
- IC50 [6, 9]: > 10000 nM
Structure (SMILES): CN1CCN(c2nc(NCc3nc4c(F)c(F)ccc4[nH]3)n3ncc(Br)c3n2)CC1 [DS71]
- EC50 [3]: 10 nM
- Toxicity rescue [3]: 610%

- TR-FRET signal at compound concentration 0.468 nM [1]: 0.3453 and 0.3314 and 0.2038 and 0.2054
- TR-FRET signal at compound concentration 2.16 nM [1]: 0.4522 and 0.4261 and 0.3132 and 0.3307
- TR-FRET signal at compound concentration 3.6 nM [1]: 0.6871 and 0.6344 and 0.5591 and 0.6106
- TR-FRET signal at compound concentration 7.92001 nM [1]: 1.2161 and 1.061 and 1.142 and 1.169
- TR-FRET signal at compound concentration 15.84 nM [1]: 2.149 and 1.974 and 2.1219 and 2.262
- TR-FRET signal at compound concentration 30.96 nM [1]: 3.31 and 3.181 and 2.938 and 2.942
- TR-FRET signal at compound concentration 62.6401 nM [1]: 3.363 and 3.323 and 3.061 and 3.125
- TR-FRET signal at compound concentration 125.28 nM [1]: 3.473 and 3.376 and 3.04 and 3.123
- TR-FRET signal at compound concentration 244.8 nM [1]: 3.475 and 3.275 and 3.121 and 3.153
- TR-FRET signal at compound concentration 993.601 nM [1]: 3.459 and 3.133 and 3.073
- TR-FRET signal at compound concentration 2001.6 nM [1]: 3.344 and 3.271 and 3.14 and 3.1113
- EC50 [1, 7]: 12 ± 1 nM
- EC50 [1, 8]: 12.2 nM
- DC50 ([2]; read-out: DC50): 6 nM
- IC50 [4]: 1 nM
- Lanthascreen raw signal, sheet CDK12 ([4]; compound 1.02544 nM): 0.008081 and 0.009101
- Lanthascreen raw signal, sheet CDK12 ([4]; compound 3.15521 nM): 0.008849 and 0.007319
- Lanthascreen raw signal, sheet CDK12 ([4]; compound 9.46563 nM): 0.006356 and 0.00835
- Lanthascreen raw signal, sheet CDK12 ([4]; compound 31.5521 nM): 0.005926 and 0.005481
- Lanthascreen raw signal, sheet CDK12 ([4]; compound 99.3891 nM): 0.005678 and 0.004673
- Lanthascreen raw signal, sheet CDK12 ([4]; compound 315.521 nM): 0.005163 and 0.006077
- Lanthascreen raw signal, sheet CDK12 ([4]; compound 3155.21 nM): 0.003862 and 0.004893
- Lanthascreen raw signal, sheet CDK12 ([4]; compound 10002 nM): 0.003963 and 0.004045
- IC50 [5]: 104 nM
- Lanthascreen TR-FRET signal (raw ratio), sheet CDK9 ([5]; compound 1.02544 nM): 0.0138 and 0.01522
- Lanthascreen TR-FRET signal (raw ratio), sheet CDK9 ([5]; compound 3.15521 nM): 0.01223 and 0.01249
- Lanthascreen TR-FRET signal (raw ratio), sheet CDK9 ([5]; compound 9.46563 nM): 0.0129 and 0.01178
- Lanthascreen TR-FRET signal (raw ratio), sheet CDK9 ([5]; compound 31.5521 nM): 0.00952 and 0.01286
- Lanthascreen TR-FRET signal (raw ratio), sheet CDK9 ([5]; compound 99.3891 nM): 0.008274 and 0.008068
- Lanthascreen TR-FRET signal (raw ratio), sheet CDK9 ([5]; compound 315.521 nM): 0.006761 and 0.006072
- Lanthascreen TR-FRET signal (raw ratio), sheet CDK9 ([5]; compound 3155.21 nM): 0.003594 and 0.002711
- Lanthascreen TR-FRET signal (raw ratio), sheet CDK9 ([5]; compound 10002 nM): 0.003294 and 0.003353
- Lanthascreen signal, sheet CDK2 ([6]; Compound 1.02544 nM): 0.009384 and 0.009817
- Lanthascreen signal, sheet CDK2 ([6]; Compound 3.15521 nM): 0.009333 and 0.009829
- Lanthascreen signal, sheet CDK2 ([6]; Compound 9.46563 nM): 0.009654 and 0.01088
- Lanthascreen signal, sheet CDK2 ([6]; Compound 31.5521 nM): 0.008522 and 0.009526
- Lanthascreen signal, sheet CDK2 ([6]; Compound 99.3891 nM): 0.01016 and 0.009968
- Lanthascreen signal, sheet CDK2 ([6]; Compound 315.521 nM): 0.008698 and 0.009504
- Lanthascreen signal, sheet CDK2 ([6]; Compound 3155.21 nM): 0.005132 and 0.004872
- Lanthascreen signal, sheet CDK2 ([6]; Compound 10002 nM): 0.003933 and 0.00458
- IC50 [6, 9]: 1060 nM
Structure (SMILES): Fc1ccc2[nH]c(CNc3nc(N4CCOCC4)nc4c(Br)cnn34)nc2c1F [DS72]
- EC50 [3]: 6 nM
- Toxicity rescue [3]: 533%
